Assay results reported in patent publication US11932626B2, “2-pyrimidone analogs as potent antiviral agents against Alphaviruses” (priority 2020, dated 2024).

What was measured:
CHIKV = CHIKV virus titer reduction (VTR) assay in NHDF cells; format: cell-based; settings: Chikungunya virus; for log reduction at 10 µM: CHIKV titer reduction at 10 μM, normal human dermal fibroblasts (NHDF) cells; for EC90: effective concentration of 90% inhibition of virus in a VTR assay, NHDF cells
[1] = system: CHIKV linked NanoLuc luciferase reporter; test: microbe, parasite or virus in culture; format: cell-based; settings: Chikungunya virus, read-out: CHIKV EC50
VEEV = test: microbe, parasite or virus in culture; format: cell-based; settings: Venezuelan equine encephalitis virus, NHDF; for EC90: read-out: VEEV EC90; for log reduction at 10 µM: read-out: VEEV VTR
VEEV (TC-83) = test: microbe, parasite or virus in culture; format: cell-based; settings: Venezuelan equine encephalitis virus, read-out: VEEV EC50
in vitro = settings: human
[2] = system: Chikungunya virus (CHIKV) strain SL15649; test: CHIKV-infected mice, 5 days oral treatment: tissue viral loads
[3] = system: Chikungunya virus (CHIKV) strain SL15649; test: CHIKV-infected mice, 10 days oral treatment: footpad swelling and viremia

SMILES | log reduction at 10 µM (CHIKV) | EC90 (CHIKV) [µM] | EC50 [1] [µM] | EC90 (VEEV) [µM] | log reduction at 10 µM (VEEV) | EC50 (VEEV (TC-83)) [µM] | CC50 (in vitro) [µM] | Adverse toxicity ([2]; mice treated three times per day for 5 days per os) | Infectious viral loads in Ipsilateral ankle ([2]; mice, 40 mg/kg 3× daily p.o., 5 dpi, p<0.0001) | Infectious viral loads in Contralateral ankle ([2]; mice, 40 mg/kg 3× daily p.o., 5 dpi, p=0.0009) | Adverse toxicity ([3]; mice treated three times per day for 10 days per os) | Footpad swelling in the ipsilateral foot ([3]; mice, 40 mg/kg 3× daily p.o., days 3-8, compared to vehicle treated mice) | Viral loads in serum ([3]; mice, 40 mg/kg 3× daily p.o., serum at 3 days post infection, p=0.0003) | Tissue distribution ([3]; mice, per os three times per day)
O=C(COc1cc[nH]c(=O)n1)NC12CC3CC(CC(C3)C1)C2 [Compound No. 7, N-(Adamantan-1-Yl)-2-((2-Oxo-1,2-Dihydropyrimidin-4-Yl)Oxy)Acetamide] | 3.68 | 0.7 | 3.2 | 1.1 | 1.79 | 38.8 | > 40 | No adverse toxicity was observed | reduced infectious viral loads | reduced infectious viral loads | No adverse toxicity was observed | reduced swelling in the ipsilateral foot at days 3, 4, 5, 6, 7, and 8 | did not have detectable viral loads in serum samples | distributed to a number of tissue types including joints and muscles
O=C(COc1nc(=O)[nH]cc1F)NC1C2CC3CC(C2)CC1C3 (centres unmarked) [compound 27, N-(Adamantan-2-Yl)-2-((5-Fluoro-2-Oxo-1,2-Dihydropyrimidin-4-Yl)Oxy)Acetamide] | 1.31 | 8.75 | 32.5 | 10 | 0 | > 40 | > 40 | – | – | – | – | – | – | –
O=C(COc1cc(C2CCC2)[nH]c(=O)n1)NC12CC3CC(CC(C3)C1)C2 [compound 12, N-(Adamantan-1-Yl)-2-((6-Cyclobutyl-2-Oxo-1,2-Dihydropyrimidin-4-Yl)Oxy)Acetamide] | 3.31 | 0.1 | 0.11 | 0.1 | 3.1 | 1.88 | > 40 | – | – | – | – | – | – | –
Cc1[nH]c(=O)nc(OCC(=O)NC23CC4CC(CC(C4)C2)C3)c1C [compound 29, N-(Adamantan-1-Yl)-2-((5,6-Dimethyl-2-Oxo-1,2-Dihydropyrimidin-4-Yl)Oxy)Acetamide] | 4.24 | 0.4 | 2.29 | 2.97 | 2.91 | > 40 | > 40 | – | – | – | – | – | – | –
O=C(COc1nc(=O)[nH]c2ccccc12)NC12CC3CC(CC(C3)C1)C2 [compound 24, N-(Adamantan-1-Yl)-2-((2-Oxo-1,2-Dihydroquinazolin-4-Yl)Oxy)Acetamide] | 6.28 | 0.3 | 0.47 | 3.2 | 1 | > 40 | > 40 | – | – | – | – | – | – | –
Cc1[nH]c(=O)nc(SCC(=O)NC23CC4CC(CC(C4)C2)C3)c1C(=O)O [compound 38, 4-((2-((Adamantan-1-Yl)Amino)-2-Oxoethyl)Thio)-6-Methyl-2-Oxo-1,2-Dihydropyrimidine-5-Carboxylic Acid] | 1.19 | – | > 40 | – | 0.23 | > 40 | > 40 | – | – | – | – | – | – | –
